Experimental data as given in patent US9067913B2, “Fumigillol type compounds and methods of making and using same” (Zafgen, Inc., priority 2010, dated 2015).
pIC50: −log10 of the molar value. Marks after values point to notes of the source that are not given here.

Experiments:
[1] = Study C: 10 day study, weight loss in mice on 60% kcal fat diet; assay type: in vivo, C57BL/6 mice; details: 10% DMSO
Protocol: Study C was a 10 day study that included 20 week old C57BL/6 mice on 60% kcal fat diet for 14 weeks treated with either 10% DMSO or the same vehicle containing an amount of drug to deliver an oral dose of 1 mg/kg or 3 mg/kg of the compound 6-O-(4-dimethylaminoethoxy)cinnamoyl fumagillol (dimethyl analogue) for 10 days.

[2] = Study A: 7 day screen, weight loss in mice on 45% kcal fat diet; assay type: in vivo, C57BL/6 mice
Protocol: Three studies were conducted using 18-20 week old C57BL/6 mice. Study A was a 7 day screen that included 18-20 week old C57BL/6 mice that were provided a 45% kcal fat diet for 14 weeks, and treated with either 10% Gelucire in water or the same vehicle containing an amount of compound A to deliver a dose of 1 mg/kg dosed daily for 7 days.

[3] = Example 4: body weight loss compared to vehicle, 3 mg/kg for 10 days; assay type: in vivo, C57BL/6 mice; details: compared with compound (i) and compound (ii)
Protocol: 20 week old C57BL/6 mice on 60% kcal fat diet for 14 weeks treated with either 10% DMSO or the same vehicle containing an amount of drug to deliver a dose of 3 mg/kg of compound (ii) (as identified above), compound (i) [fumigillol], and compound A for 10 days. FIG. 3 indicates the body weight loss compared to vehicle for each compound.

MetAP2 [4] = molecular target: T1, MetAP2 (Homo sapiens, UniProt P50579); assay: MetAP2 enzyme assay; assay type: biochemical; details: for inhibition at 0.05 µM: 50 nM; for inhibition at 0.2 µM: 200 nM
T1 sequence (P50579 whole entry, species assumed): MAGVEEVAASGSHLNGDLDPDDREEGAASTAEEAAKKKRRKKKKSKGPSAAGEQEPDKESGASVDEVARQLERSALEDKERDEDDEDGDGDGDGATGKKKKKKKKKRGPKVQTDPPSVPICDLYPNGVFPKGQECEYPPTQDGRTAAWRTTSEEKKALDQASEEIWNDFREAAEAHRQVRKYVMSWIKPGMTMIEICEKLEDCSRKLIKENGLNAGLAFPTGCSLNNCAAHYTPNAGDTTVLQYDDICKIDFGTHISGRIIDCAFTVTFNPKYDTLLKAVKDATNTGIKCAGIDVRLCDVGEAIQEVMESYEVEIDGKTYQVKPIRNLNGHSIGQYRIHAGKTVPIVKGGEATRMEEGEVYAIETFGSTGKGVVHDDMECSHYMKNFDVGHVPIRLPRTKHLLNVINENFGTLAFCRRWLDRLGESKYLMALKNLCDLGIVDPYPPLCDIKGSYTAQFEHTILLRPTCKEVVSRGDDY
Protocol: Compound A was tested in a MetAP2 enzyme assay. Table 1 indicates the inhibition results for various concentrations: […]

[5] = weight loss study in obese mice (high-fat diet induced), Example 2; assay type: in vivo, C57BL/6NTac mice; details: 1.0 mg/kg in 10% gelucire in deionised water, once a day for 7 days, 60% fat diet
Protocol: A weight loss study was conducted in obese mice. The mice in this study were not genetically obese, but prior to and during the study, obesity was induced by a high-fat diet. Twelve week-old C57BL/6NTac mice, maintained on a 60% fat diet prior to and during the study, were separated into seven groups, eight animals per group. Average body weight of the mice was approximately 47 g at the start of the study.
Mice were administered 1.0 mg/kg of compound A in 10% gelucire in deionised water. Mice received administrations once a day for 7 days. The one week weight loss was 11.9%.

MetAP2 [6] = assay: Example 4: testes biomarker, N-terminal peptide of mouse thioredoxin (SEQ ID NO. 1) by LC-MS/MS; assay type: in vivo; details: 3 mg/kg for 10 days, testes harvested at end of study
Excerpt: At the end of the study testes from the mice were harvested, homogenized and digested with endoproteinase Glu-C.

[7] = Study B: 10 day study, weight loss in mice on 60% kcal fat diet; assay type: in vivo, C57BL/6 mice; details: PO 3 mg/kg, 10% DMSO
Protocol: Study B was a 10 day study that included 20 week old C57BL/6 mice on 60% kcal fat diet for 14 weeks treated with either 10% DMSO or the same vehicle containing an amount of drug to deliver a dose of 3 mg/kg of compound A for 10 days. FIG. 2 depicts the 7-day PO efficacy at 3 mg/kg of compound A.

MetAP2 [8] = molecular target: T1, MetAP2; assay: cell based assay, inhibition of MetAP2
Protocol: In a cell based assay, the inhibition of MetAP2 was <10 nM.

Row | Compound | weight loss at day 7 ([1]; PO 1 mg/kg) [%^c] | weight loss at day 7 ([1]; PO 3 mg/kg) [%^c] | weight loss at day 7 ([2]; PO 1 mg/kg daily, Study A, 10% Gelucire in water, 45% kcal fat diet) [%^a] | potency dosed orally as compared to 6-O-(4-dimethylaminoethoxy)cinnamoyl fumagillol ([2]; day 7 weight loss, studies A, B, C compared) [times] | weight loss potency (FIG. 3) [3] | inhibition at 0.05 µM (MetAP2 [4]; 1 hr) [%] | inhibition at 0.2 µM (MetAP2 [4]; 1 hr) [%] | inhibition at 0.05 µM (MetAP2 [4]; 2 hr) [%] | inhibition at 0.2 µM (MetAP2 [4]; 2 hr) [%] | inhibition at 0.05 µM (MetAP2 [4]; 4 hr) [%] | inhibition at 0.2 µM (MetAP2 [4]; 4 hr) [%] | one week weight loss [5] [%] | availability to the testes tissue (concentration of SEQ ID NO. 1, FIG. 4) (MetAP2 [6]) | weight loss at day 7 [7] [%^b] | pIC50 (MetAP2 [8])
1 | CO[C@@H]1[C@H](OC(=O)C=Cc2ccc(OCCN(C)C)cc2)CC[C@]2(CO2)[C@H]1[C@@]1(C)O[C@@H]1CC=C(C)C [dimethyl analogue, 6-O-(4-dimethylaminoethoxy)cinnamoyl fumagillol] | 1.1 | 11 | – | – | – | – | – | – | – | – | – | – | – | – | –
2 | CCN(CC)CCOc1ccc(/C=C/C(=O)O[C@@H]2CC[C@]3(CO3)[C@@H]([C@@]3(C)O[C@@H]3CC=C(C)C)[C@@H]2OC)cc1 [Compound A] | – | – | 12 | ≥ 3 | comparable weight loss potency | 42 | 100 | 45 | 100 | 71 | 100 | 11.9 | not as available to the testes tissue as compared to the other tested compounds | 13 | > 8.00
